Measured values from ChEMBL document CHEMBL5385849, “Discovery of 1-hydroxy-2-methylquinolin-4(1H)-one derivatives as new cytochrome bd oxidase inhibitors for tuberculosis therapy” (Eur J Med Chem, 2023).
Converted amounts (≈) assume the structure as drawn. The source made the active and inactive calls. The calls are words filed in the database; no cut-off is given here.

Assays:
[1] = Binding affinity to C-terminal his-tagged Mycobacterium tuberculosis Cytochrome bd oxidase assessed as dissociation constant incubated for 5 to 10 mins by MST assay
[2] = tested on: Mycolicibacterium smegmatis; assay: Antimycobacterial activity against Mycobacterium smegmatis harboring deltaqcrCAB mutant assessed as reduction in bacterial growth incubated for 24 hrs by resazurin dye based analysis; type: functional
[3] = tested on: Mycolicibacterium smegmatis; assay: Antimycobacterial activity against wild type Mycobacterium smegmatis MC2155 assessed as reduction in bacterial growth incubated for 24 hrs by resazurin dye based analysis; type: functional
[4] = tested on: Mycolicibacterium smegmatis; assay: Antimycobacterial activity against Mycobacterium smegmatis harboring deltaqcrCAB mutant assessed as reduction in bacterial growth incubated for 2 days by resazurin dye based analysis; type: functional; settings: 48 h, time 2 day
[5] = tested on: Mycolicibacterium smegmatis; assay: (§1) Inhibition of C-terminal his-tagged wild type Mycobacterium smegmatis MC2155 cytochrome bd oxidase assessed as reduction in oxygen consumption at 25 uM measured upto 4 days by Methylene blue dye based assay; settings: time <= 4.0 day
[6] = tested on: Mycolicibacterium smegmatis; assay: Inhibition of C-terminal his-tagged wild type Mycobacterium smegmatis MC2155 cytochrome bd oxidase assessed as reduction in oxygen consumption at 5 uM measured upto 4 days by Methylene blue dye based assay; settings: time <= 4.0 day
[7] = tested on: Mycolicibacterium smegmatis; assay: Inhibition of C-terminal his-tagged wild type Mycobacterium smegmatis MC2155 cytochrome bd oxidase assessed as reduction in oxygen consumption at 5 uM measured upto 4 days in presence of Aurachin D by Methylene blue dye based assay; settings: time <= 4.0 day
[8] = tested on: Mycolicibacterium smegmatis; assay: as §1, with “days in presence of 6-chloro-2-ethyl-N-(4-(4-(4-(trifluoromethoxy)phenyl)piperidin-1-yl)benzyl)imidazo[1,2-a]pyridine-3-carboxamide” for “days”; settings: time <= 4.0 day
[9] = tested on: Mycolicibacterium smegmatis; assay: Inhibition of C-terminal his-tagged Mycobacterium smegmatis harboring deltaqcrCAB mutant inverted-membrane vesicle cytochrome bd oxidase assessed as reduction in oxygen consumption rate at 10 uM measured upto 4 days by Methylene blue dye based assay; type: cell membranes; settings: time <= 4.0 day
[10] = tested on: Mycolicibacterium smegmatis; assay: Inhibition of C-terminal his-tagged wild type Mycobacterium smegmatis inverted-membrane vesicle cytochrome bd oxidase assessed as reduction in oxygen consumption rate at 10 uM measured upto 4 days by Methylene blue dye based assay; type: cell membranes; settings: time <= 4.0 day
[11] = tested on: Mycolicibacterium smegmatis; assay: Inhibition of C-terminal his-tagged Mycobacterium smegmatis harboring […] mutant inverted-membrane vesicle cytochrome bd oxidase assessed as reduction in oxygen consumption rate at 10 uM measured upto 4 days by Methylene blue dye based assay; type: cell membranes; settings: time <= 4.0 day

Row | Compound | MIC [2] [µM] | MIC [3] [µM] | further results
1 | CC(C)(C)c1cc(C(C)(C)C)c(NC(=O)c2c[nH]c3ccccc3c2=O)cc1O [IVACAFTOR] | 51 (≈ 20 µg/mL) | – | Kd [1]: 40 µM
2 | Cc1c(Cc2ccc(I)cc2)c(=O)c2ccccc2n1O | 12.5 (≈ 4.89 µg/mL) | > 400 | –
3 | Cc1c(Cc2ccccc2Br)c(=O)c2ccccc2n1O | 50 (≈ 17.2 µg/mL) | > 400 | –
4 | CCc1ccccc1Cc1c(C)n(O)c2ccccc2c1=O | 50 (≈ 14.7 µg/mL) | > 400 | –
5 | Cc1c(Cc2ccccc2F)c(=O)c2ccccc2n1O | 50 (≈ 14.2 µg/mL) | > 400 | –
6 | Cc1[nH]c2ccccc2c(=O)c1Cc1ccc(OC(F)(F)F)cc1 | 50 (≈ 16.7 µg/mL) | > 400 | –
7 | Cc1c(Cc2ccc(N3CCN(C)CC3)cc2)c(=O)c2ccccc2n1O | > 400 | > 400 | –
8 | Cc1c(Cc2ccccc2)c(=O)c2ccccc2n1O | 50 (≈ 13.3 µg/mL) | > 400 | –
9 | Cc1c(Cc2ccccc2OC(F)(F)F)c(=O)c2ccccc2n1O | 3.1 (≈ 1.08 µg/mL) | > 400 | Kd [1]: 165 µM; MIC [4]: 6.25 µM (≈ 2.18 µg/mL)
10 | Cc1c(-c2cnn(Cc3ccc(OC(F)(F)F)cc3)c2)c(=O)c2ccccc2n1O | > 400 | > 400 | –
11 | Cc1ccccc1Cc1c(C)n(O)c2ccccc2c1=O | 25 (≈ 6.98 µg/mL) | > 400 | –
12 | Cc1c(Cc2ccccc2C(F)(F)F)c(=O)c2ccccc2n1O | 50 (≈ 16.7 µg/mL) | > 400 | –
13 | CC(C)=CCC/C(C)=C/CC/C(C)=C/Cc1c(C)[nH]c2ccccc2c1=O [AURACHIN D] | 6.25 (≈ 2.27 µg/mL) | – | inhibition [5]: inactive
14 | Cc1c(Cc2ccccc2Cl)c(=O)c2ccccc2n1O | 50 (≈ 15 µg/mL) | > 400 | –
15 | Cc1c(Cc2ccc(Br)cc2)c(=O)c2ccccc2n1O | 6.25 (≈ 2.15 µg/mL) | > 400 | –
16 | Cc1c(Cc2ccc(N3CCN(c4ccc(OC(F)(F)F)cc4)CC3)cc2)c(=O)c2ccccc2n1O | 100 (≈ 51 µg/mL) | > 400 | –
17 | COc1ccccc1Cc1c(C)n(O)c2ccccc2c1=O | 25 (≈ 7.38 µg/mL) | > 400 | –
18 | CN(C(=O)c1c(O)c2ccccc2n(C)c1=O)c1ccccc1 [ROQUINIMEX] | 260 (≈ 80.2 µg/mL) | – | Kd [1]: 13 µM
19 | CCc1nc2ccc(Cl)cn2c1C(=O)NCc1ccc(N2CCC(c3ccc(OC(F)(F)F)cc3)CC2)cc1 | – | – | inhibition [6]: inactive; inhibition [7]: Active
20 | Cc1c(Cc2ccc(Cl)cc2)c(=O)c2ccccc2n1O | 6.25 (≈ 1.87 µg/mL) | > 400 | –
21 | Cc1c(Cc2ccc(OC(F)(F)F)cc2)c(=O)c2ccccc2n1O | 6.25 (≈ 2.18 µg/mL) | > 400 | Kd [1]: 4.17 µM; MIC [4]: 6.25 µM (≈ 2.18 µg/mL); inhibition [5]: inactive; inhibition [8]: Active; inhibition [9]: 86%; inhibition [10]: 74%; inhibition [11]: inactive
22 | Cc1[nH]c2ccccc2c(=O)c1-c1cnn(Cc2ccc(OC(F)(F)F)cc2)c1 | > 400 | > 400 | –
